Measurements: PMC12396409, “Screening and hit evaluation of a microbial metabolite library against the pathogenic Plasmodium falciparum and Toxoplasma gondii parasites” (International Journal for Parasitology: Drugs and Drug …, 2025)
Read-outs that look alike come from different tables or passages of the source.

Columns and labels:
[1] = test system: T. gondii RH strain (RH-Tub-eYFP) tachyzoites; test: microbe, parasite or virus in culture; type: cell-based, Toxoplasma gondii; conditions: library screen at 2 μg/mL, 72 h; for Tg_72h_%Growth_Rep1 / Tg_72h_%Growth_Rep2 / percent parasite growth at 2 µg/mL: % growth; for percent parasite growth at 2 µg/mL: Toxoplasma gondii
[2] = test system: P. falciparum 3D7 parasites; test: P. falciparum growth inhibition assay, 2-cycle (120 h treatment), delayed-death screen and dose-response; type: cell-based, Plasmodium falciparum
[3] = test system: P. falciparum 3D7 parasites; test: P. falciparum growth inhibition assay, 1-cycle (72 h treatment), SYBR DNA staining (library screen at 2 μg/mL and dose-response); type: cell-based, Plasmodium falciparum
[4] = library screen at 2 μg/mL, 120 h, % growth, replicate 1
[5] = library screen at 2 μg/mL, 120 h, % growth, replicate 2
[6] = library screen at 2 μg/mL, 72 h, % growth, replicate 1
[7] = library screen at 2 μg/mL, 72 h, % growth, replicate 2
[8] = replicate 1, read-out: Tg_72h_%Growth_Rep1
[9] = replicate 2, read-out: Tg_72h_%Growth_Rep2
[10] = Plasmodium falciparum, 3D7, library screen at 2 μg/mL, 120 h, % growth, replicate 1, read-out: Pf_120h_%Growth_Rep1
[11] = Plasmodium falciparum, 3D7, library screen at 2 μg/mL, 120 h, % growth, replicate 2, read-out: Pf_120h_%Growth_Rep2
[12] = Plasmodium falciparum, 3D7, library screen at 2 μg/mL, 72 h, % growth, replicate 1, read-out: Pf_72h_%Growth_Rep1
[13] = Plasmodium falciparum, 3D7, library screen at 2 μg/mL, 72 h, % growth, replicate 2, read-out: Pf_72h_%Growth_Rep2
[14] = P. falciparum 3D7, 120 h, library screen at 2 μg/mL, % growth, replicate 1
[15] = P. falciparum 3D7, 120 h, library screen at 2 μg/mL, % growth, replicate 2
[16] = P. falciparum 3D7, 72 h, library screen at 2 μg/mL, % growth, replicate 1
[17] = P. falciparum 3D7, 72 h, library screen at 2 μg/mL, % growth, replicate 2

Compound | Tg_72h_%Growth_Rep1 ([1]; replicate 1) | Tg_72h_%Growth_Rep2 ([1]; replicate 2) | Pf_120h_%Growth_Rep1 [2, 4] | Pf_120h_%Growth_Rep2 [2, 5] | Pf_72h_%Growth_Rep1 [3, 6] | Pf_72h_%Growth_Rep2 [3, 7] | other results
CCC(=O)Nc1c2sscc-2n(C)c1=O [Aureothricin] | 1.55% | 1.43% | 11.34% | -0.06% | 7.64% | 5.69% | 
CC(C)c1ncc(Cc2ccccc2)[nH]c1=O [Aureusimine B] | 82.28% | 99.21% | 140.97% | 94.84% | 102.22% | 85.03% | 
C=C1C(=O)O[C@H]2C(=O)O[C@H](CCCCCCCC)[C@@H]12 [Avenaciolide] | 102.05% | 95.83% | 53.72% | 80.39% | 79.34% | 78.44% | 
CC[C@H](C)[C@H]1O[C@]2(C=C[C@@H]1C)C[C@@H]1C[C@@H](C/C=C(\C)[C@@H](O)[C@@H](C)/C=C/C=C3\CO[C@@H]4[C@H](O)C(C)=C[C@@H](C(=O)O1)[C@]34O)O2 [Avermectin B1a aglycone] | 137.71% | 97.71% | 81.78% | 74.45% | 81.70% | 78.59% | 
CC[C@H](C)[C@H]1O[C@]2(C=C[C@@H]1C)C[C@@H]1C[C@@H](C/C=C(\C)[C@@H](O[C@H]3C[C@H](OC)[C@@H](O)[C@H](C)O3)[C@@H](C)/C=C/C=C3\CO[C@@H]4[C@H](O)C(C)=C[C@@H](C(=O)O1)[C@]34O)O2 [Avermectin B1a monosaccharide] | 153.46% | 93.98% | 24.77% | 20.49% | 47.44% | 32.72% | 
CC[C@H](C)[C@H]1O[C@]2(C=C[C@@H]1C)C[C@@H]1C[C@@H](C/C=C(\C)[C@@H](O[C@H]3C[C@H](OC)[C@@H](O[C@H]4C[C@H](OC)[C@H](O)[C@H](C)O4)[C@H](C)O3)[C@@H](C)C=C/C=C3\CO[C@@H]4[C@H](O)C(C)C=C(C(=O)O1)[C@]34O)O2 (some centres unmarked) [Avermectin B1a, delta2-] | 29.57% | 35.45% | 4.88% | -9.99% | 4.74% | 5.45% | 
CC[C@H](C)[C@H]1O[C@]2(C=C[C@@H]1C)C[C@@H]1C[C@@H](C/C=C(\C)[C@@H](O[C@H]3C[C@H](OC)[C@@H](O[C@H]4C[C@H](OC)[C@@H](O)[C@H](C)O4)[C@H](C)O3)[C@@H](C)/C=C/C=C3\CO[C@@H]4[C@H](O)C(C)=C[C@H](C(=O)O1)[C@]34O)O2 [Avermectin B1a, epi-] | 34.09% | 40.50% | 5.66% | -2.43% | 8.49% | 20.73% | 
CC[C@H](C)[C@H]1O[C@]2(C=C[C@@H]1C)C[C@@H]1C[C@@H](C/C=C(\C)[C@@H](O[C@H]3C[C@H](OC)[C@@H](O[C@H]4C[C@H](OC)[C@@H](O)[C@H](C)O4)[C@H](C)O3)[C@@H](C)/C=C/C=C3\CO[C@@H]4[C@H](O)C(C)=C[C@@H](C(=O)O1)[C@]34O)O2 [Avermectin B1a] |  |  |  |  |  |  | percent parasite growth at 2 µg/mL [1, 8]: 81.9%; percent parasite growth at 2 µg/mL [1, 9]: 76.2%; activity at 2 µg/mL [2, 10]: 3.33%; activity at 2 µg/mL [2, 11]: 5.47%; activity at 2 µg/mL [3, 12]: 3.24%; activity at 2 µg/mL [3, 13]: 3.85%
CO[C@H]1C[C@H](O[C@H]2[C@H](C)O[C@@H](O[C@@H]3/C(C)=C/C[C@@H]4C[C@@H](C[C@]5(C=C[C@H](C)[C@@H](C(C)C)O5)O4)OC(=O)[C@@H]4C=C(C)[C@@H](O)[C@H]5OC/C(=C\C=C\[C@@H]3C)[C@]54O)C[C@@H]2OC)O[C@@H](C)[C@@H]1O [Avermectin B1b] | 74.43% | 75.78% | 7.97% | -7.80% | 8.18% | 3.73% | 
CC[C@]1(C)C[C@@H](OC(=O)CSc2nnc(N)[nH]2)[C@]2(C)[C@H](C)CC[C@]3(CCC(=O)[C@H]32)[C@@H](C)[C@@H]1O [Azamulin] |  |  |  |  |  |  | percent parasite growth at 2 µg/mL [1, 8]: 65.2%; percent parasite growth at 2 µg/mL [1, 9]: 70.7%; Screen (T. gondii) ([1]; RH strain): I; delayed-death activity in the 120 h screen against P. falciparum ([2]; 2 μg/mL, criteria: ≥40 % growth at 72 h, ≤20 % growth at 120 h, at least 5-fold): delayed-death activity; 3) Fold change (72 h/120 h) ([2]; P. falciparum, growth at 72 h / growth at 120 h, 2 μg/mL): 6.9; activity at 2 µg/mL ([2]; Plasmodium falciparum, 3D7; P. falciparum, 2 μg/mL, 120 h; read-out: 2) Growth (%) at 120 h): 8.89%; activity at 2 µg/mL [2, 10]: 15.6%; activity at 2 µg/mL [2, 11]: 2.17%; activity at 2 µg/mL ([3]; Plasmodium falciparum, 3D7; P. falciparum, 2 μg/mL, 72 h; read-out: 1) Growth (%) at 72 h): 61.2%; activity at 2 µg/mL [3, 12]: 59.3%; activity at 2 µg/mL [3, 13]: 63.1%
[N-]=[N+]=NCC(=O)N[C@H](CO)[C@H](O)c1ccc([N+](=O)[O-])cc1 [Azidamfenicol] |  |  |  |  |  |  | percent parasite growth at 2 µg/mL [1, 8]: 129%; percent parasite growth at 2 µg/mL [1, 9]: 103%; activity at 2 µg/mL [2, 10]: 64.6%; activity at 2 µg/mL [2, 11]: 95.3%; activity at 2 µg/mL [3, 12]: 82.7%; activity at 2 µg/mL [3, 13]: 84.9%
O=[N+]([O-])c1ncc[nH]1 [Azomycin] |  |  |  |  |  |  | percent parasite growth at 2 µg/mL [1, 8]: 77.1%; percent parasite growth at 2 µg/mL [1, 9]: 71.1%; activity at 2 µg/mL ([2]; Plasmodium falciparum, 3D7, 120 h, library screen at 2 μg/mL, 120 h, % growth, replicate 1, read-out: Pf_120h_%Growth_Rep1): 147%; activity at 2 µg/mL ([2]; Plasmodium falciparum, 3D7, 120 h, library screen at 2 μg/mL, 120 h, % growth, replicate 2, read-out: Pf_120h_%Growth_Rep2): 91.9%; activity at 2 µg/mL ([3]; Plasmodium falciparum, 3D7, 72 h, library screen at 2 μg/mL, 72 h, % growth, replicate 1, read-out: Pf_72h_%Growth_Rep1): 83.2%; activity at 2 µg/mL ([3]; Plasmodium falciparum, 3D7, 72 h, library screen at 2 μg/mL, 72 h, % growth, replicate 2, read-out: Pf_72h_%Growth_Rep2): 88%
COc1cc2c(oc(=O)c3cc(C)cc(OC)c32)c2c([C@H]3O[C@@H]([C@@H](C)O)[C@H](O)[C@H]3O)ccc(O)c12 [BIA-G1034] |  |  |  |  |  |  | Tg_72h_%Growth_Rep1 ([1]; T. gondii RH, replicate 1): 123.33%; Tg_72h_%Growth_Rep2 ([1]; T. gondii RH, replicate 2): 101.31%; Pf_120h_%Growth_Rep1 [2, 14]: 90.16%; Pf_120h_%Growth_Rep2 [2, 15]: 122.56%; Pf_72h_%Growth_Rep1 [3, 16]: 90.69%; Pf_72h_%Growth_Rep2 [3, 17]: 120.87%
COC1=CC(=O)C[C@@H](C)[C@]12Oc1c(Cl)c(OC)cc(OC)c1C2=O [BIA-G1212] |  |  |  |  |  |  | Tg_72h_%Growth_Rep1 ([1]; T. gondii RH, replicate 1): 123.15%; Tg_72h_%Growth_Rep2 ([1]; T. gondii RH, replicate 2): 96.50%; Pf_120h_%Growth_Rep1 [2, 14]: 92.82%; Pf_120h_%Growth_Rep2 [2, 15]: 104.36%; Pf_72h_%Growth_Rep1 [3, 16]: 92.41%; Pf_72h_%Growth_Rep2 [3, 17]: 108.96%
CN1C(=O)[C@]23CC4=CC=C[C@H](O)[C@H]4N2C(=O)[C@@]1(CO)SS3 [BIA-G1260] |  |  |  |  |  |  | Tg_72h_%Growth_Rep1 ([1]; T. gondii RH, replicate 1): 1.56%; Tg_72h_%Growth_Rep2 ([1]; T. gondii RH, replicate 2): 0.82%; Pf_120h_%Growth_Rep1 [2, 14]: 35.56%; Pf_120h_%Growth_Rep2 [2, 15]: 25.95%; Pf_72h_%Growth_Rep1 [3, 16]: 14.96%; Pf_72h_%Growth_Rep2 [3, 17]: 8.82%
